Among the test systems are CAKI-1 renal; COLO 205 colon; HL-60(TB) leukemia; K-562 leukemia; MDA-MB-435; NCI-H226 lung; RXF 393 renal; SR leukemia; UACC-62 melanoma; CCRF-CEM leukemia.
What all share (assay): DTP human tumour cell line panel, 48 h

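Five compound concentrations were applied to cells in 96-well plates for 48 hours; endpoints were derived by simple linear interpolation of the resulting dose-response curve. Abbreviation: GI50, concentration required for 50% inhibition of growth. TGI is the concentration that stops growth completely.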

By GI50 is commonly meant the concentration at which growth is held to half of that of the control. A word on the TGI: it is the concentration giving total growth inhibition. High values mean lower sensitivity of the cells, low ones greater sensitivity of the cells. For `OC[C@H]1C[C@](O)(c2ccc(Cl)cc2)[C@@H](c2ccc(Cl)cc2)O1`, the GI50 in the assay with CAKI-1 renal was 27 µM; in the assay on COLO 205 colon, 25.6 µM; with HL-60(TB) leukemia, 17.6 µM; with K-562 leukemia, 24.9 µM; in the assay on MDA-MB-435, 22.9 µM; in the assay with NCI-H226 lung it was 26.4 µM. Besides, the GI50 was 20.8 µM in the assay on RXF 393 renal, 0.202 µM with SR leukemia and 16 µM with UACC-62 melanoma. Further, the TGI with CAKI-1 renal is 79.3 µM; with COLO 205 colon, 51.8 µM; with HL-60(TB) leukemia, 49.2 µM; in the assay with K-562 leukemia, 76.5 µM; in the assay with MDA-MB-435, 47.8 µM; in the assay with NCI-H226 lung it was 72.8 µM. In addition, the TGI came out at 39.7 µM with RXF 393 renal, 16.8 µM in the assay with SR leukemia and 31.6 µM in the assay on UACC-62 melanoma.

In the case of `Cc1cc(CC(O)c2ccc(Cl)c(Cl)c2)nc(=O)[nH]1` (centres undefined), the TGI in the assay on CAKI-1 renal was 90 µM; in the assay with CCRF-CEM leukemia, more than 100 µM; in the assay with COLO 205 colon, 85.2 µM; in the assay with HL-60(TB) leukemia, more than 100 µM; in the assay with K-562 leukemia, more than 100 µM; in the assay with NCI-H226 lung it was 92 µM. Also, the TGI in the assay with SR leukemia and in the assay on UACC-62 melanoma was more than 100 µM in each case.

Regarding `CCCCCCNC(=O)c1cc(NCc2cc(O)ccc2O)ccc1O`, the GI50 in the assay on CAKI-1 renal is 4.35 µM; in the assay on CCRF-CEM leukemia, 0.409 µM; with COLO 205 colon, 10.8 µM; in the assay with HL-60(TB) leukemia, 0.578 µM; in the assay with K-562 leukemia, 2.71 µM; in the assay with MDA-MB-435, 9.48 µM. Further, the figures for the GI50 in the assay with RXF 393 renal, in the assay with SR leukemia and in the assay with UACC-62 melanoma were 2.42 µM, 2.88 µM and 3.78 µM, respectively. Moreover, the TGI with CAKI-1 renal amounted to 18.5 µM; in the assay with CCRF-CEM leukemia, 46.5 µM; in the assay on COLO 205 colon, 28.6 µM; with HL-60(TB) leukemia, 3.41 µM; with K-562 leukemia it was 12.8 µM; in the assay on MDA-MB-435, 22.1 µM. The TGI in the assay on RXF 393 renal is 8.03 µM; with SR leukemia it was more than 100 µM; in the assay with UACC-62 melanoma it was 14.7 µM.

For `CCCN=C(N)NC#N`, the TGI in the assay with CAKI-1 renal was more than 100 µM; in the assay with COLO 205 colon, 32.9 µM; in the assay on HL-60(TB) leukemia it was more than 100 µM; in the assay on K-562 leukemia, more than 100 µM; with NCI-H226 lung it was more than 100 µM; in the assay with RXF 393 renal it was more than 100 µM. In addition, the TGI in the assay on SR leukemia was 77.2 µM; in the assay on UACC-62 melanoma it was more than 100 µM.

For `O=C(O)CCC(=O)c1ccc[nH]1`, the TGI in the assay with CAKI-1 renal, with COLO 205 colon, with K-562 leukemia, with MDA-MB-435, in the assay on NCI-H226 lung and with RXF 393 renal was more than 100 µM throughout. In addition, the TGI in the assay with SR leukemia and in the assay with UACC-62 melanoma was more than 100 µM each time.

As to `O=S1(=O)C[C@H](O)[C@H](O)CS1`, the TGI in the assay on CAKI-1 renal, in the assay on COLO 205 colon, in the assay with HL-60(TB) leukemia, in the assay on K-562 leukemia, with NCI-H226 lung and in the assay with RXF 393 renal was more than 100 µM each time. Besides, the TGI with SR leukemia and in the assay on UACC-62 melanoma was more than 100 µM in each case.

Consider `CC(C)N(C(=O)C12C3C4C5(C#N)C3C1(C#N)C5C42I)C(C)C` (centres undefined), for which the TGI in the assay on CAKI-1 renal is more than 100 µM; in the assay with CCRF-CEM leukemia it was more than 59.7 µM; in the assay on COLO 205 colon, more than 65.1 µM; in the assay on HL-60(TB) leukemia it was more than 55.6 µM; in the assay with K-562 leukemia, more than 59.4 µM; in the assay on NCI-H226 lung, more than 100 µM. For the same molecule, the TGI is more than 100 µM in the assay with RXF 393 renal, 38.2 µM with SR leukemia and more than 100 µM in the assay with UACC-62 melanoma.

Turning to `NNC(=S)N/N=C(\CC1OC(=O)c2ccccc21)c1ccccc1O` (centres undefined), the TGI was more than 100 µM in the assay on CAKI-1 renal; more than 100 µM in the assay with CCRF-CEM leukemia; more than 100 µM in the assay with COLO 205 colon; more than 100 µM in the assay with HL-60(TB) leukemia; more than 100 µM in the assay on K-562 leukemia; 95.4 µM in the assay on NCI-H226 lung. Moreover, the TGI in the assay with RXF 393 renal is 77.3 µM; in the assay with SR leukemia, 46.4 µM; in the assay on UACC-62 melanoma it was more than 100 µM.

Regarding `C=C1C(=O)O[C@@H]2C[C@@H]1CC/C(C)=C/CC/C(C)=C/CC[C@@]2(C)O`, the GI50 in the assay on CAKI-1 renal was 10.7 µM; with COLO 205 colon, 34.1 µM; in the assay on HL-60(TB) leukemia, 3.04 µM; with K-562 leukemia, 4.7 µM; with MDA-MB-435, 5.07 µM; with NCI-H226 lung, 4.54 µM. For the same molecule, the GI50 in the assay with RXF 393 renal was 19.1 µM; in the assay with SR leukemia, 1.63 µM; in the assay on UACC-62 melanoma, 14 µM. Besides, the TGI with CAKI-1 renal came out at 23.7 µM; in the assay on COLO 205 colon, 99.2 µM; in the assay on HL-60(TB) leukemia, 8.95 µM; in the assay on K-562 leukemia, 17.3 µM; in the assay on MDA-MB-435 it was 18.5 µM; in the assay on NCI-H226 lung, 22.2 µM. Besides, the TGI with RXF 393 renal was found to be 45.6 µM; in the assay with SR leukemia, 3.58 µM; in the assay with UACC-62 melanoma, 29.3 µM.

For `COc1ccc2c3c([nH]c2c1[N+](=O)[O-])C(C)=NCC3`, the TGI with CAKI-1 renal, in the assay with CCRF-CEM leukemia, in the assay on COLO 205 colon, with HL-60(TB) leukemia, in the assay on K-562 leukemia and with NCI-H226 lung was more than 100 µM each time. Besides, the TGI in the assay with RXF 393 renal is more than 100 µM; in the assay with SR leukemia, more than 100 µM; with UACC-62 melanoma it was 62.3 µM.

Take `COc1ccc(C(=O)C(c2ccc(OC)cc2)C2(O)C(=O)Nc3ccc([N+](=O)[O-])cc32)cc1` (centres undefined): the TGI in the assay on CAKI-1 renal, in the assay on CCRF-CEM leukemia, in the assay with COLO 205 colon, in the assay on HL-60(TB) leukemia, in the assay on K-562 leukemia and with NCI-H226 lung was more than 100 µM each time. Besides, the TGI with RXF 393 renal, in the assay with SR leukemia and in the assay on UACC-62 melanoma was more than 100 µM each time.

`CN(C)N=Nc1ccc(NC=O)cc1`: the TGI with CAKI-1 renal, in the assay with CCRF-CEM leukemia, with COLO 205 colon, in the assay on HL-60(TB) leukemia, in the assay on K-562 leukemia and in the assay with MDA-MB-435 was more than 100 µM in each case. Besides, the TGI in the assay on RXF 393 renal, in the assay on SR leukemia and in the assay with UACC-62 melanoma was more than 100 µM in each case.

In the case of `CN(C)/C=N/c1nc2c(ncn2C2OC(CO)C(O)C2O)c(=O)[nH]1` (centres undefined), the TGI in the assay with CAKI-1 renal, in the assay with COLO 205 colon, in the assay with HL-60(TB) leukemia, with K-562 leukemia, in the assay on NCI-H226 lung and with RXF 393 renal was more than 100 µM in each case. Also, the TGI in the assay on SR leukemia and with UACC-62 melanoma was more than 100 µM each time.

The values are drawn from PubChem BioAssay (NCI).
